Assay results from PMC9434261, “Plant peptidoglycan precursor biosynthesis: Conservation between moss chloroplasts and Gram-negative bacteria” (Plant Physiology, 2022).
Square brackets hold non-standard residues; d marks the D form. Peptide text beside a SMILES is read from it.

Assays:
[1] = target: T1, Streptococcus pneumoniae Pn16 MurE (Streptococcus pneumoniae, UniProt Q8CWQ5); assay: coupled pyruvate kinase/lactate dehydrogenase ADP-release assay, A340; format: biochemical; details: 150 µM L-Lys, 375 µM UDP-MurNAc-dipeptide, ATP; 37 °C
T1 construct: recombinant, overexpressed and purified as in Blewett et al. 2004
T1 sequence (Q8CWQ5 1-481): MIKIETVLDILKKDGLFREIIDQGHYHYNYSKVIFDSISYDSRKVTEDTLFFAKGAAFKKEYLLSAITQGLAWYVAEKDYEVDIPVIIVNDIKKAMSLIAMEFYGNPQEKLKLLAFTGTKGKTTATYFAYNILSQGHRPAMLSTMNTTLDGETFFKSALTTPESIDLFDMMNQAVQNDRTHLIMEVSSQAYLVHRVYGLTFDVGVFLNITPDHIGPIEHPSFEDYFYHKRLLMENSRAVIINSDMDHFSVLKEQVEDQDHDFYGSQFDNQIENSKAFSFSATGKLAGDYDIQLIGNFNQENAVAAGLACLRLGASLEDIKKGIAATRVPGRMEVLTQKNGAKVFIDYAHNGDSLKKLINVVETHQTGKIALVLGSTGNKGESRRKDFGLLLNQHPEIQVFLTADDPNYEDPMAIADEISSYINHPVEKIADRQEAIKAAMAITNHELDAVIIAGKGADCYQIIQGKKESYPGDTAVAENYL

PaMurF = target: T2, PaMurF (Pseudomonas aeruginosa, UniProt Q9EY48); assay: coupled ADP-release assay, tripeptide made in situ by MurE; format: biochemical; details: with UDP-MurNAc-D,L-DAP tripeptide (made in situ by MurE) and ATP
T2 construct: gene murF; recombinant, overexpressed and purified as in Majce et al. 2013
T2 sequence (Q9EY48 1-458): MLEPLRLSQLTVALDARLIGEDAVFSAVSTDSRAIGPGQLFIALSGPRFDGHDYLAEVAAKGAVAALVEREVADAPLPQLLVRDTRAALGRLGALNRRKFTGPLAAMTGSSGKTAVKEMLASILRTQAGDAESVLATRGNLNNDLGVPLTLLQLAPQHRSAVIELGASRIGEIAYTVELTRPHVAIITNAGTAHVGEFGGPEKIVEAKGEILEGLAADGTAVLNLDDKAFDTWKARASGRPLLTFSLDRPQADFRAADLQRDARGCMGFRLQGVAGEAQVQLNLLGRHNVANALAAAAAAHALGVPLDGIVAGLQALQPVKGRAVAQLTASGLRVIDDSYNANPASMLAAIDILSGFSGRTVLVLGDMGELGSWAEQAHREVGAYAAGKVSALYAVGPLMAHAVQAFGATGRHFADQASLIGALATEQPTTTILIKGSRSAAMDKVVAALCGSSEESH

CC(=O)N[C@H]1[C@@H](OP(=O)(O)OP(=O)(O)OC[C@H]2O[C@@H](n3ccc(=O)[nH]c3=O)[C@H](O)[C@@H]2O)O[C@H](CO)[C@@H](O)[C@@H]1O[C@H](C)C(=O)N[C@@H](C)C(=O)N[C@H](CCC(=O)O)C(=O)O [UDP-MurNAc-Ala-Glu, Uridine diphospho N-acetylmuramyl-L-alanyl-D-glutamate]
coupled pyruvate kinase/lactate dehydrogenase ADP-release assay, A340 [1]: lysylation of UDP-MurNAc-Ala-Glu was also assayed with the L-Lys-specific Streptococcus pneumoniae Pn16 MurE

C[C@@H](N)C(=O)N[C@H](C)C(=O)O [D-Ala–D-Ala] (H-[dA]-[dA]-OH)
coupled ADP-release assay, tripeptide made in situ by MurE (PaMurF): MurF ligase with D-Ala–D-Ala as the second substrate
